{"source": "patent US6706663B2", "about": "“Herbicidal 3-heterocyclic substituted benzisothiazole and benzisoxazole compounds” (Wyeth, priority 2000, dated 2004)", "key": {"CYPIR (Cyperus iria)": {"system": "CYPIR (Cyperus iria)", "experiment": "Flooded paddy, preemergence weed control", "assay_type": "in vivo", "details": "rated 3-4 weeks after treatment, 0-9 rating scale", "procedure,_shortened": "(§1)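 Silt loam, sowing depth ≤0.5 cm; permanent flood 1.5–3 cm above soil; greenhouse culture after treatment. Readout: 0-9 visual scale (stand, vigor, malformation, size, chlorosis, appearance) vs control.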"}, "[1]": {"system": "ABUTH (Abutilon theophrasti)", "experiment": "Postemergence herbicidal evaluation", "assay_type": "in vivo, Medic.", "details": "postemergence", "procedure,_shortened": "(§2)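 Visual 0–9 injury scores versus control plants, covering stand, vigour, malformation, size, chlorosis and general appearance, taken four to five weeks post-spray and averaged over replicate tests. Plants were sprayed at roughly two weeks old and held on greenhouse benches.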"}, "ZEAMX (Corn, Field) [2]": {"system": "ZEAMX (Corn, Field)", "experiment": "Postemergence herbicidal evaluation", "assay_type": "in vivo, Zea mays, L.", "details": "postemergence", "procedure,_shortened": "as §2"}, "[3]": {"system": "AMBEL (Ambrosia artemisifolia)", "experiment": "Preemergence herbicidal evaluation", "assay_type": "in vivo, L.", "details": "preemergence, rated 4-5 weeks after treatment", "procedure,_shortened": "(§3)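 Visual 0-9 rating versus untreated control, taken four to five weeks post-treatment, scoring stand, vigor, malformation, size, chlorosis and overall appearance. Compound applied as aqueous acetone spray to freshly seeded soil cups, then kept under standard greenhouse care.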"}, "ORYSAT (Rice, Tebonnet) [4]": {"system": "ORYSAT (Rice, Tebonnet)", "experiment": "Flooded paddy, post-transplant rice tolerance", "assay_type": "in vivo, Oryza sativa, (L.) Tebonnet", "details": "in vivo", "procedure,_shortened": "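Visual 0–9 injury rating against a control, covering stand, vigor, malformation, size, chlorosis and overall appearance. Treatment was post-transplant onto flooded containers (water 1.5–3 cm deep, silt loam) holding two ten-day-old cv. Tebonnet seedlings, maintained on greenhouse benches.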"}, "GALAP (Galium aparine) [5]": {"system": "GALAP (Galium aparine)", "experiment": "Postemergence herbicidal evaluation", "assay_type": "in vivo", "details": "postemergence", "procedure,_shortened": "as §2"}, "[6]": {"system": "IPOHE (Ipomoea hederacea)", "experiment": "Postemergence herbicidal evaluation", "assay_type": "in vivo, (L.) Jacq.", "details": "postemergence", "procedure,_shortened": "as §2"}, "[7]": {"system": "TRZAWR (Wheat, Winter, cv Riband)", "experiment": "Postemergence herbicidal evaluation", "assay_type": "in vivo, Triticum aestivum", "details": "postemergence", "procedure,_shortened": "as §2"}, "[8]": {"system": "CASOB (Cassia obtusifolia)", "experiment": "Postemergence herbicidal evaluation", "assay_type": "in vivo, L.", "details": "postemergence", "procedure,_shortened": "as §2"}, "[9]": {"system": "CHEAL (Chenopodium album)", "experiment": "Postemergence herbicidal evaluation", "assay_type": "in vivo, L.", "details": "postemergence", "procedure,_shortened": "as §2"}, "[10]": {"system": "AMBEL (Ambrosia artemisifolia)", "experiment": "Postemergence herbicidal evaluation", "assay_type": "in vivo, L.", "details": "postemergence", "procedure,_shortened": "as §2"}, "[11]": {"system": "IPOHE (Ipomoea hederacea)", "experiment": "Preemergence herbicidal evaluation", "assay_type": "in vivo, (L.) Jacq.", "details": "preemergence, rated 4-5 weeks after treatment"}, "[12]": {"system": "ECHCG (Echinochloa crus-galli)", "experiment": "Postemergence herbicidal evaluation", "assay_type": "in vivo, (L.) Beau", "details": "postemergence", "procedure,_shortened": "as §2"}, "GLXMA (Soybean)": {"system": "GLXMA (Soybean)", "experiment": "Preemergence herbicidal evaluation", "assay_type": "in vivo, Glycine max, (L.) Merr.", "details": "preemergence, rated 4-5 weeks after treatment"}, "ZEAMX (Corn, Field) [13]": {"system": "ZEAMX (Corn, Field)", "experiment": "Preemergence herbicidal evaluation", "assay_type": "in vivo, Zea mays, L.", "details": "preemergence, rated 4-5 weeks after treatment"}, "[14]": {"system": "ECHORC (Echinochloa oryzoides)", "experiment": "Flooded paddy, preemergence weed control", "assay_type": "in vivo, Echinochloa oryzoides (Ard.) Fritsch.", "details": "rated 3-4 weeks after treatment, 0-9 rating scale", "procedure,_shortened": "as §1"}, "[15]": {"system": "ECHCG (Echinochloa crus-galli)", "experiment": "Preemergence herbicidal evaluation", "assay_type": "in vivo, (L.) Beau", "details": "preemergence, rated 4-5 weeks after treatment", "procedure,_shortened": "as §3"}, "ORYSAT (Rice, Tebonnet) [16]": {"system": "ORYSAT (Rice, Tebonnet)", "experiment": "Postemergence herbicidal evaluation", "assay_type": "in vivo, Oryza sativa, (L.) Tebonnet", "details": "postemergence", "procedure,_shortened": "as §2"}, "[17]": {"system": "GLXMAW (Soybean, Williams)", "experiment": "Postemergence herbicidal evaluation", "assay_type": "in vivo, Glycine max, (L.) Merr. cv Williams", "details": "postemergence", "procedure,_shortened": "as §2"}, "[18]": {"system": "ABUTH (Abutilon theophrasti)", "experiment": "Preemergence herbicidal evaluation", "assay_type": "in vivo, Medic.", "details": "preemergence, rated 4-5 weeks after treatment"}, "[19]": {"system": "SAGPY (Sagittaria pygmaea)", "experiment": "Flooded paddy, preemergence weed control", "assay_type": "in vivo, L.", "details": "rated 3-4 weeks after treatment, 0-9 rating scale", "procedure,_shortened": "as §1"}, "GALAP (Galium aparine) [20]": {"system": "GALAP (Galium aparine)", "experiment": "Preemergence herbicidal evaluation", "assay_type": "in vivo", "details": "preemergence, rated 4-5 weeks after treatment", "procedure,_shortened": "as §3"}, "[21]": {"system": "MOOVA (Monochoria vaginalis)", "experiment": "Flooded paddy, preemergence weed control", "assay_type": "in vivo, Presl.", "details": "rated 3-4 weeks after treatment, 0-9 rating scale", "procedure,_shortened": "as §1"}}, "data": [{"substance": "1-methyl-3-[3-(4-oxo-delta-2-1,2,5-thiadiazolin-3-yl)-1,2-benzisothiazol-5-yl]-6-(trifluoromethyl)uracil S′,S′-dioxide [Compound 92]", "values": [{"measurement": "CYPIR herbicidal rating", "setting": "CYPIR (Cyperus iria); rate 0.0320 kg/ha", "result": 0.0}, {"measurement": "CYPIR herbicidal rating", "setting": "CYPIR (Cyperus iria); rate 0.1250 kg/ha", "result": 8.0}, {"measurement": "ABUTH herbicidal rating", "setting": "[1]; rate 0.0320 kg/ha", "result": 6.0}, {"measurement": "ABUTH herbicidal rating", "setting": "[1]; rate 0.0620 kg/ha", "result": 7.0}, {"measurement": "ABUTH herbicidal rating", "setting": "[1]; rate 0.1250 kg/ha", "result": 9.0}, {"measurement": "ZEAMX herbicidal rating", "setting": "ZEAMX (Corn, Field) [2]; rate 0.0320 kg/ha", "result": 2.0}, {"measurement": "ZEAMX herbicidal rating", "setting": "ZEAMX (Corn, Field) [2]; rate 0.0620 kg/ha", "result": 2.5}, {"measurement": "ZEAMX herbicidal rating", "setting": "ZEAMX (Corn, Field) [2]; rate 0.1250 kg/ha", "result": 3.0}, {"measurement": "Preemergence herbicidal rating AMBEL", "setting": "[3]; rate 0.0620 kg/ha", "result": 0.0}, {"measurement": "Preemergence herbicidal rating AMBEL", "setting": "[3]; rate 0.1250 kg/ha", "result": 0.0}, {"measurement": "Preemergence herbicidal rating AMBEL", "setting": "[3]; rate 0.2500 kg/ha", "result": 0.0}, {"measurement": "ORYSAT herbicidal rating (transplanted rice tolerance)", "setting": "ORYSAT (Rice, Tebonnet) [4]", "result": 0.0}, {"measurement": "GALAP herbicidal rating", "setting": "GALAP (Galium aparine) [5]; rate 0.0320 kg/ha", "result": 2.0}, {"measurement": "GALAP herbicidal rating", "setting": "GALAP (Galium aparine) [5]; rate 0.0620 kg/ha", "result": 3.0}, {"measurement": "GALAP herbicidal rating", "setting": "GALAP (Galium aparine) [5]; rate 0.1250 kg/ha", "result": 4.0}, {"measurement": "IPOHE herbicidal rating", "setting": "[6]; rate 0.0320 kg/ha", "result": 6.0}, {"measurement": "IPOHE herbicidal rating", "setting": "[6]; rate 0.0620 kg/ha", "result": 8.0}, {"measurement": "IPOHE herbicidal rating", "setting": "[6]; rate 0.1250 kg/ha", "result": 8.0}, {"measurement": "TRZAWR herbicidal rating", "setting": "[7]; rate 0.0320 kg/ha", "result": 1.0}, {"measurement": "TRZAWR herbicidal rating", "setting": "[7]; rate 0.0620 kg/ha", "result": 1.5}, {"measurement": "TRZAWR herbicidal rating", "setting": "[7]; rate 0.1250 kg/ha", "result": 1.5}, {"measurement": "CASOB herbicidal rating", "setting": "[8]; rate 0.0320 kg/ha", "result": 4.0}, {"measurement": "CASOB herbicidal rating", "setting": "[8]; rate 0.0620 kg/ha", "result": 5.0}, {"measurement": "CASOB herbicidal rating", "setting": "[8]; rate 0.1250 kg/ha", "result": 5.0}, {"measurement": "CHEAL herbicidal rating", "setting": "[9]; rate 0.0320 kg/ha", "result": 3.0}, {"measurement": "CHEAL herbicidal rating", "setting": "[9]; rate 0.0620 kg/ha", "result": 6.0}, {"measurement": "CHEAL herbicidal rating", "setting": "[9]; rate 0.1250 kg/ha", "result": 6.0}, {"measurement": "AMBEL herbicidal rating", "setting": "[10]; rate 0.0320 kg/ha", "result": 3.0}, {"measurement": "AMBEL herbicidal rating", "setting": "[10]; rate 0.0620 kg/ha", "result": 5.0}, {"measurement": "AMBEL herbicidal rating", "setting": "[10]; rate 0.1250 kg/ha", "result": 6.0}, {"measurement": "Preemergence herbicidal rating IPOHE", "setting": "[11]; rate 0.0620 kg/ha", "result": 0.0}, {"measurement": "Preemergence herbicidal rating IPOHE", "setting": "[11]; rate 0.1250 kg/ha", "result": 0.0}, {"measurement": "Preemergence herbicidal rating IPOHE", "setting": "[11]; rate 0.2500 kg/ha", "result": 4.0}, {"measurement": "ECHCG herbicidal rating", "setting": "[12]; rate 0.0320 kg/ha", "result": 2.0}, {"measurement": "ECHCG herbicidal rating", "setting": "[12]; rate 0.0620 kg/ha", "result": 3.0}, {"measurement": "ECHCG herbicidal rating", "setting": "[12]; rate 0.1250 kg/ha", "result": 4.0}, {"measurement": "Preemergence herbicidal rating GLXMA", "setting": "GLXMA (Soybean); rate 0.0620 kg/ha", "result": 0.0}, {"measurement": "Preemergence herbicidal rating GLXMA", "setting": "GLXMA (Soybean); rate 0.1250 kg/ha", "result": 0.0}, {"measurement": "Preemergence herbicidal rating GLXMA", "setting": "GLXMA (Soybean); rate 0.2500 kg/ha", "result": 0.0}, {"measurement": "Preemergence herbicidal rating ZEAMX", "setting": "ZEAMX (Corn, Field) [13]; rate 0.0620 kg/ha", "result": 0.0}, {"measurement": "Preemergence herbicidal rating ZEAMX", "setting": "ZEAMX (Corn, Field) [13]; rate 0.1250 kg/ha", "result": 0.0}, {"measurement": "Preemergence herbicidal rating ZEAMX", "setting": "ZEAMX (Corn, Field) [13]; rate 0.2500 kg/ha", "result": 0.0}, {"measurement": "ECHORC herbicidal rating", "setting": "[14]; rate 0.0320 kg/ha", "result": 0.0}, {"measurement": "ECHORC herbicidal rating", "setting": "[14]; rate 0.1250 kg/ha", "result": 0.0}, {"measurement": "Preemergence herbicidal rating ECHCG", "setting": "[15]; rate 0.0620 kg/ha", "result": 0.0}, {"measurement": "Preemergence herbicidal rating ECHCG", "setting": "[15]; rate 0.1250 kg/ha", "result": 0.0}, {"measurement": "Preemergence herbicidal rating ECHCG", "setting": "[15]; rate 0.2500 kg/ha", "result": 0.0}, {"measurement": "ORYSAT herbicidal rating", "setting": "ORYSAT (Rice, Tebonnet) [16]; rate 0.0320 kg/ha", "result": 1.0}, {"measurement": "ORYSAT herbicidal rating", "setting": "ORYSAT (Rice, Tebonnet) [16]; rate 0.0620 kg/ha", "result": 1.0}, {"measurement": "ORYSAT herbicidal rating", "setting": "ORYSAT (Rice, Tebonnet) [16]; rate 0.1250 kg/ha", "result": 1.0}, {"measurement": "GLXMAW herbicidal rating", "setting": "[17]; rate 0.0320 kg/ha", "result": 5.0}, {"measurement": "GLXMAW herbicidal rating", "setting": "[17]; rate 0.0620 kg/ha", "result": 5.0}, {"measurement": "GLXMAW herbicidal rating", "setting": "[17]; rate 0.1250 kg/ha", "result": 5.5}, {"measurement": "Preemergence herbicidal rating ABUTH", "setting": "[18]; rate 0.0620 kg/ha", "result": 0.0}, {"measurement": "Preemergence herbicidal rating ABUTH", "setting": "[18]; rate 0.1250 kg/ha", "result": 0.0}, {"measurement": "Preemergence herbicidal rating ABUTH", "setting": "[18]; rate 0.2500 kg/ha", "result": 3.0}, {"measurement": "SAGPY herbicidal rating", "setting": "[19]; rate 0.0320 kg/ha", "result": 0.0}, {"measurement": "SAGPY herbicidal rating", "setting": "[19]; rate 0.1250 kg/ha", "result": 0.0}, {"measurement": "Preemergence herbicidal rating GALAP", "setting": "GALAP (Galium aparine) [20]; rate 0.0620 kg/ha", "result": 0.0}, {"measurement": "Preemergence herbicidal rating GALAP", "setting": "GALAP (Galium aparine) [20]; rate 0.1250 kg/ha", "result": 0.0}, {"measurement": "Preemergence herbicidal rating GALAP", "setting": "GALAP (Galium aparine) [20]; rate 0.2500 kg/ha", "result": 2.0}, {"measurement": "MOOVA herbicidal rating", "setting": "[21]; rate 0.0320 kg/ha", "result": 0.0}, {"measurement": "MOOVA herbicidal rating", "setting": "[21]; rate 0.1250 kg/ha", "result": 8.0}]}]}
